Each structure is given as a SMILES string.

One may read the inhibition as the relative decrease from the control value, in per cent.

One assay addresses T1, HDAC1 (Homo sapiens, UniProt Q13547).
T1 construct: purchased BPS #50001
The assay can be described thus: HDAC inhibition assay (HTRF), HDAC1.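 On all read-outs here: HTRF detection with streptavidin-XL665 plus Eu(K)-labelled anti-H3K9me0 antibody, two independent runs with duplicate wells per concentration.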 It counts as biochemical. Particulars: for IC50: read-out: IC50 ± SD, HDAC1. In general terms: In TR-FRET formats the signal depends on donor and acceptor labels being close together.

The next assay has as its target T2, HDAC6 (Homo sapiens, UniProt Q9UBN7).
T2 construct: purchased BPS #50006
T2 sequence (Q9UBN7 1-1215): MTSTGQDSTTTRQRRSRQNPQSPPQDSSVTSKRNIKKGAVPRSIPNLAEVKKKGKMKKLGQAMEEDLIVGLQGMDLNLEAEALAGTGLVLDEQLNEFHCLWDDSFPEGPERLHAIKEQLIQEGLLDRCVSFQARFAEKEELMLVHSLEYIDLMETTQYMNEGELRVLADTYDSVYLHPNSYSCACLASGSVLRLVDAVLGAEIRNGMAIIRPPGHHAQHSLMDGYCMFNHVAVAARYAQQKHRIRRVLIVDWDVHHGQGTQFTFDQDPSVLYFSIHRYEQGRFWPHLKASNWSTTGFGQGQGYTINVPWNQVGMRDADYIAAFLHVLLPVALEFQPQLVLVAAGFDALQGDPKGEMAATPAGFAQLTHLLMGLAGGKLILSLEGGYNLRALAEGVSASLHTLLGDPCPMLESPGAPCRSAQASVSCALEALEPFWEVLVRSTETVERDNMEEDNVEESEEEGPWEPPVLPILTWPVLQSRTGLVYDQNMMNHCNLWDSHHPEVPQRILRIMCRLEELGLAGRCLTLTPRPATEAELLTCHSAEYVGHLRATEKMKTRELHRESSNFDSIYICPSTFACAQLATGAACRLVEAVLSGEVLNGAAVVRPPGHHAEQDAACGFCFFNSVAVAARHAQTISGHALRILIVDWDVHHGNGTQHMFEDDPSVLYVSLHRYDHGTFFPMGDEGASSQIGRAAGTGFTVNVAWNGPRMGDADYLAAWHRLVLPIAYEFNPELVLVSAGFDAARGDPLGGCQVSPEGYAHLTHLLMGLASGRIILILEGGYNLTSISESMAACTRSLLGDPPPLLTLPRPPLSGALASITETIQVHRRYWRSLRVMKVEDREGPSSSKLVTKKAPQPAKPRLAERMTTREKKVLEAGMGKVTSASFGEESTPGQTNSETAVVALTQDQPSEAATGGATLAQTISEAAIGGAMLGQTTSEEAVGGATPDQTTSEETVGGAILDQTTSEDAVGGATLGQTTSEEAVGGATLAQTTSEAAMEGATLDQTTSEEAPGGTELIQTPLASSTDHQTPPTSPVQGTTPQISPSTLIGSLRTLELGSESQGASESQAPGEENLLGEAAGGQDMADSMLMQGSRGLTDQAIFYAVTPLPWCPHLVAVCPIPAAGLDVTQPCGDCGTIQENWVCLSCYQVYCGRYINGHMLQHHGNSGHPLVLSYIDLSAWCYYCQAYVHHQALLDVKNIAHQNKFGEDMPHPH
The assay is described as follows: HDAC inhibition assay (HTRF), HDAC6. The class given is biochemical. The note with it: for IC50: read-out: IC50 ± SD, HDAC6.

Another assay deals with HDAC3 (Homo sapiens, UniProt O15379). The assay can be described thus: HDAC inhibition assay (HTRF), HDAC3.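 Further: HTRF detection with streptavidin-XL665 and a Eu cryptate-labelled antibody against unmodified H3K9, two independent runs with duplicate wells at each concentration.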
Chain of HDAC3 (O15379 whole entry): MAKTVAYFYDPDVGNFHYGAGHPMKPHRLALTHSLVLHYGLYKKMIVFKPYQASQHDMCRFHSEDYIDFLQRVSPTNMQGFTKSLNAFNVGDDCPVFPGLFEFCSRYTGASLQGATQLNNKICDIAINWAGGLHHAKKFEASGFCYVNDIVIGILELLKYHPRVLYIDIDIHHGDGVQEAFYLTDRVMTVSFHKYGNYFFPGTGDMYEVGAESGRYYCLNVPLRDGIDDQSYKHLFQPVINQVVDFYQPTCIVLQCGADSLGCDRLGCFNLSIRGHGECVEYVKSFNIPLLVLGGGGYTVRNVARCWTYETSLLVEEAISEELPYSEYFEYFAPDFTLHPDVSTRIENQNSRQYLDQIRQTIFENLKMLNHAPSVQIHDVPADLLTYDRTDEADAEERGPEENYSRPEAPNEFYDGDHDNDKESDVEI
Chain of HDAC3 (Q9Y618 395-489 partner limits assumed): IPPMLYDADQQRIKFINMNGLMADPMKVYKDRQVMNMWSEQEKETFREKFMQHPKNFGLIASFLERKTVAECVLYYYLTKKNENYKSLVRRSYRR
Assay [1] relates to RPMI-8226 (human myeloma cell line). The assay is described as follows: CCK8 cell viability assay, RPMI-8226. The class given is cell-based. The note with it: 72 h, read-out: Proliferation inhibition IC50 ± SD, RPMI-8226. As to the method:
(§1) The CCK8 (#AC11L054, Life ilab, Shanghai, China) method was used to detect the cells’ proliferation. Cells were seeded into a 96-well culture plate at an appropriate density. […] IC50 values were estimated using the four-parameter method. Each set of experiments was repeated independently three times with three replicate wells per concentration each time.
A general note: Tetrazolium assays rely on reduction of a dye to a coloured formazan, in cell work by metabolically active cells.

Assay [2] concerns HL-60 (human leukemia cell line). The assay can be described thus: CCK8 cell viability assay, HL-60. It counts as cell-based. The note with it: 72 h, read-out: Proliferation inhibition IC50 ± SD, HL-60. Here is the method:
as §1

For assay [3], the system named is HCT-116 (human colon cancer cell line). The assay can be described thus: CCK8 cell viability assay, HCT-116. It counts as cell-based. The note with it: 72 h, read-out: Proliferation inhibition IC50 ± SD, HCT-116. Here is the method: as §1
The mark [4] stands for this setting: read-out: (%) Inhibition of HDAC3.

T1 sequence (Q13547 whole entry): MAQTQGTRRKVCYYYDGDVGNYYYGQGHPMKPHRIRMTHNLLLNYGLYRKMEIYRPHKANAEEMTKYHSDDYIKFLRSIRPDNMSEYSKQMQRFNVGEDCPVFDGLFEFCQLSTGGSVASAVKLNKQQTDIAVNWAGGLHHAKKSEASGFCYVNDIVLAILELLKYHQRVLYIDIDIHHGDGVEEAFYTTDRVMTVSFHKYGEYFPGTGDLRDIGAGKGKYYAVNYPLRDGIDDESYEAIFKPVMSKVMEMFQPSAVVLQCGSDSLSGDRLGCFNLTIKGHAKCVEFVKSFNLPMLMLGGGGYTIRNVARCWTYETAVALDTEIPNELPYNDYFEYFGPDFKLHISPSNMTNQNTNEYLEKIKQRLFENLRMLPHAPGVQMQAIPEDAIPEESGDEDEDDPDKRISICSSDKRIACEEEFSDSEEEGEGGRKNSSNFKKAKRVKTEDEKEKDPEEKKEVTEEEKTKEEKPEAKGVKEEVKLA
Protocol for HDAC1: (§2) Then, SA-XL665 (#610SAXLG, Cisbio, Bedford, MA, USA) and anti-H3K9me0-Eu(K) (#61KB0KAD, Cisbio, USA) were added. […] The IC50 value of the compounds was calculated using GraphPad 7.0 software. Each set of experiments was independently repeated twice, with two replicate wells per concentration each time.
Protocol for HDAC3: as §2
Protocol for HDAC6: as §2

Regarding `CC(=O)c1cccn1CCCC(=O)NO` [Compound 3a, 4-(2-Acetyl-1H-pyrrol-1-yl)-N-hydroxybutanamide], the IC50 at HDAC1, at HDAC6 and on HDAC3 was over 10000 nM throughout.

As to `CC(=O)c1cccn1CCCCC(=O)NO` [Compound 3b, 5-(2-Acetyl-1H-pyrrol-1-yl)-N-hydroxypentanamide], the IC50 is 426 ± 13.8 nM at HDAC1, over 10000 nM at HDAC6 and over 10000 nM on HDAC3.

`CC(=O)c1cccn1CCCCCC(=O)NO` [Compound 3c, 6-(2-Acetyl-1H-pyrrol-1-yl)-N-hydroxyhexanamide]: the IC50 at HDAC1 turned out to be 118 ± 30.8 nM; on HDAC6, 82.3 ± 15.2 nM; against HDAC3, 138 ± 18.6 nM.

`CC(=O)c1cccn1CCCCCCC(=O)NO` [Compound 3d, 7-(2-Acetyl-1H-pyrrol-1-yl)-N-hydroxyheptanamide]: the IC50 is 51.9 ± 6.73 nM at HDAC1; 14.2 ± 1.24 nM at HDAC6; 45.53 ± 0.23 nM against HDAC3; over 30 µM in assay [1]; over 30 µM in assay [2]; over 30 µM in assay [3].

With `CC(=O)c1cccn1CCCCCCCC(=O)NO` [Compound 3e, 8-(2-Acetyl-1H-pyrrol-1-yl)-N-hydroxyoctanamide], the IC50 at HDAC1 worked out at 82.4 ± 31.1 nM; on HDAC6, 15.5 ± 2.9 nM; against HDAC3, 85 ± 1.21 nM.

As for `O=C(CCCCCCn1cccc1)NO` [Compound 5a, N-hydroxy-7-(1H-pyrrol-1-yl)heptanamide], the IC50 at HDAC1 is 101 ± 25.7 nM; at HDAC6, 16.4 ± 6.31 nM; against HDAC3, 129 ± 51.6 nM; in assay [1], over 30 µM; in assay [2] it was 19.8 ± 1.88 µM; in assay [3] it was 26.4 ± 4.1 µM.

As for `CCC(=O)c1cccn1CCCCCCC(=O)NO` [Compound 5b, N-hydroxy-7-(2-propionyl-1H-pyrrol-1-yl)heptanamide], the IC50 was determined as 54.2 ± 8.74 nM at HDAC1; 7.67 ± 1.06 nM on HDAC6; 58.2 ± 4.64 nM against HDAC3; 19.9 ± 7.71 µM in assay [1]; 12.9 ± 0.75 µM in assay [2]; 23 ± 7.03 µM in assay [3].

For `COC(=O)c1cccn1CCCCCCC(=O)NO` [Compound 5d, Methyl 1-(7-(hydroxyamino)-7-oxoheptyl)-1H-pyrrole-2-carboxylate], the IC50 was 52 ± 21.9 nM on HDAC1; 11.2 ± 4.76 nM on HDAC6; 49.5 ± 2.92 nM at HDAC3; over 30 µM in assay [1]; 21.8 ± 10.7 µM in assay [2]; over 30 µM in assay [3].

In the case of `O=C(CCCCCCn1cccc1C(=O)c1ccccc1)NO` [Compound 5e, 7-(2-Benzoyl-1H-pyrrol-1-yl)-N-hydroxyheptanamide], the IC50 amounted to 13.7 ± 4.39 nM at HDAC1; 9.74 ± 6.37 nM at HDAC6; 3.08 ± 0.97 nM against HDAC3; 17.9 ± 6.51 µM in assay [1]; 7.5 ± 1.55 µM in assay [2]; 19.8 ± 8.32 µM in assay [3].

`O=C(CCCCCCn1ccc2ccccc21)NO` [Compound 5f, N-hydroxy-7-(1H-indol-1-yl)heptanamide]: the inhibition at 1 µM against HDAC1 is 96.8%; at HDAC6, 92.6%; at HDAC3 (setting [4]) it was 94.4%. Further, the IC50 in assay [1], in assay [2] and in assay [3] was over 30 µM each time.

Consider `Cc1ccc2c(ccn2CCCCCCC(=O)NO)c1` [Compound 5g, N-hydroxy-7-(5-methyl-1H-indol-1-yl)heptanamide], for which the inhibition at 1 µM on HDAC1 came out at 96.1%; on HDAC6, 91.5%; on HDAC3 (setting [4]), 93.5%. The IC50 in assay [1], in assay [2] and in assay [3] was over 30 µM in each case.

`O=C(CCCCCCn1ccc2ccc(F)cc21)NO` [Compound 5h, 7-(6-Fluoro-1H-indol-1-yl)-N-hydroxyheptanamide]: the inhibition at 1 µM at HDAC1 was found to be 96.5%; against HDAC6 it was 92.4%; on HDAC3 (setting [4]) it was 93.2%. Further, the IC50 in assay [1], in assay [2] and in assay [3] was over 30 µM in each case.

As for `O=C(CCCCCCn1ccc2cc(F)ccc21)NO` [Compound 5i, 7-(5-Fluoro-1H-indol-1-yl)-N-hydroxyheptanamide], the IC50 on HDAC1 is 4.48 ± 2.43 nM; at HDAC6, at most 1.7 nM; on HDAC3 it was 1.82 ± 0.78 nM; in assay [1], over 30 µM; in assay [2], over 30 µM; in assay [3] it was over 30 µM.

`O=C(CCCCCCn1ccc2cc(Cl)ccc21)NO` [Compound 5j, 7-(5-Chloro-1H-indol-1-yl)-N-hydroxyheptanamide]: the inhibition at 1 µM against HDAC1 worked out at 96.2%; against HDAC6 it was 92.3%; at HDAC3 (setting [4]), 93.3%. For the same compound, the IC50 in assay [1], in assay [2] and in assay [3] was over 30 µM in each case.

As for `O=C(CCCCCCn1ccc2cc(Br)ccc21)NO` [Compound 5k, 7-(5-Bromo-1H-indol-1-yl)-N-hydroxyheptanamide], the inhibition at 1 µM against HDAC1 came out at 96.2%; at HDAC6, 90.3%; on HDAC3 (setting [4]), 92.2%. The IC50 in assay [1], in assay [2] and in assay [3] was over 30 µM throughout.

For `N#Cc1ccc2c(ccn2CCCCCCC(=O)NO)c1` [Compound 5l, 7-(5-Cyano-1H-indol-1-yl)-N-hydroxyheptanamide], the IC50 was 2.42 ± 0.36 nM on HDAC1; 2.31 ± 0.34 nM on HDAC6; 1.18 ± 0.06 nM against HDAC3; over 30 µM in assay [1]; over 30 µM in assay [2]; over 30 µM in assay [3].

On to `CC(=O)c1cccn1CCc1ccc(C(=O)NO)cc1` [Compound 11, 4-(2-(2-Acetyl-1H-pyrrol-1-yl)ethyl)-N-hydroxybenzamide], for which the values for the inhibition at 10 µM against HDAC1 (at 10 μM), against HDAC6 (at 10 μM) and on HDAC3 (setting [4]) were 77.6%, 89.5% and 79.9%, respectively. In addition, the IC50 is 11.7 ± 1.75 µM in assay [1], 28 ± 0.56 µM in assay [2] and 17.1 ± 8.69 µM in assay [3].

Take `CC(=O)c1cccn1Cc1cn(CCc2ccc(C(=O)Nc3ccc(F)cc3N)cc2)nn1` [Compound 19b, 4-(2-(4-((2-Acetyl-1H-pyrrol-1-yl)methyl)-1H-1,2,3-triazol-1-yl)ethyl)-N-(2-amino-4-fluorophenyl)benzamide]: the IC50 at HDAC1, at HDAC6 and against HDAC3 was over 10000 nM in each case.

Take `CC(=O)c1cccn1Cc1cn(CCc2ccc(C(=O)Nc3ccc(Cl)cc3N)cc2)nn1` [Compound 19c, 4-(2-(4-((2-Acetyl-1H-pyrrol-1-yl)methyl)-1H-1,2,3-triazol-1-yl)ethyl)-N-(2-amino-4-chlorophenyl)benzamide]: the IC50 on HDAC1, at HDAC6 and against HDAC3 was over 10000 nM throughout.

For `CC(=O)c1cccn1Cc1cn(CCc2ccc(C(=O)Nc3cc(F)c(F)cc3N)cc2)nn1` [Compound 19d, 4-(2-(4-((2-Acetyl-1H-pyrrol-1-yl)methyl)-1H-1,2,3-triazol-1-yl)ethyl)-N-(2-amino-4,5-difluorophenyl)benzamide], the IC50 at HDAC1, at HDAC6 and against HDAC3 was over 10000 nM throughout.

For `COc1ccc(NC(=O)c2ccc(CCn3cc(Cn4cccc4C(C)=O)nn3)cc2)c(N)c1` [Compound 19e, 4-(2-(4-((2-Acetyl-1H-pyrrol-1-yl)methyl)-1H-1,2,3-triazol-1-yl)ethyl)-N-(2-amino-4-methoxyphenyl)benzamide], the IC50 at HDAC1, at HDAC6 and at HDAC3 was over 10000 nM throughout.
